Key:
Type in all cases: cell-based
Escherichia coli = assay: Antibiotic susceptibility testing (colour of media), spiked milk; details: 37° C., plate configuration #3
Description: (§1) Tables 36 to 38 which follow show further examples of antibiotic susceptibility testing performed in accordance with the present invention. Table 36, antibiotic susceptibility testing of Staphylococcus aureus in Mueller Hinton and Tryptic Soy Broth at pre-incubation and at between 15-24 h. Tables 37 and 38, antimicrobial susceptibility testing of Streptococcus uberis and E. coli with the addition of gram negative specific antibiotic aztreonam. Tables 38 to 49 show further examples of antibiotic susceptibility testing and the outcomes are aligned with the described inventions.

Staphylococcus aureus = assay: as above; details: T~16 h, 37° C., plate configuration #3
Description: as §1

Streptococcus uberis = assay: as above; details: T~16 h, 37° C., bacteria samples 6d, plate configuration #3
Description: as §1

[1] = tested on: bacteria samples 4c, 4e, 5c, 5e, 6d; assay: Antibiotic susceptibility testing (colour of media), plate configuration #3, reference colours at 0 hours for bacteria samples 4c, 4e, 5c, 5e, 6d; details: T~0 h
[2] = Benzyl Penicillin or Cloxacillin 1 μg/ml
[3] = Benzyl Penicillin or Cloxacillin 10 μg/ml
[4] = Benzyl Penicillin or Cloxacillin 100 μg/ml
[5] = Benzyl Penicillin or Cloxacillin 1,000 μg/ml
[6] = Benzyl Penicillin or Cloxacillin 10,000 μg/ml

Structure (SMILES): Cc1onc(-c2ccccc2Cl)c1C(=O)N[C@@H]1C(=O)N2[C@@H]1SC(C)(C)[C@@H]2C(=O)O [cloxacillin]
- Colour of media in each well (Escherichia coli; T~16 h, bacteria samples 4c, Benzyl Penicillin or Cloxacillin 1 μg/ml): yellow
- Colour of media in each well (Escherichia coli; T~16 h, bacteria samples 4c, Benzyl Penicillin or Cloxacillin 10 μg/ml): yellow
- Colour of media in each well (Escherichia coli; T~16 h, bacteria samples 4c, Benzyl Penicillin or Cloxacillin 100 μg/ml): yellow
- Colour of media in each well (Escherichia coli; T~16 h, bacteria samples 4c, Benzyl Penicillin or Cloxacillin 1,000 μg/ml): yellow
- Colour of media in each well (Escherichia coli; T~16 h, bacteria samples 4c, Benzyl Penicillin or Cloxacillin 10,000 μg/ml): red
- Colour of media in each well (Escherichia coli; t~16 h, bacteria samples 4e, Benzyl Penicillin or Cloxacillin 1 μg/ml): yellow
- Colour of media in each well (Escherichia coli; t~16 h, bacteria samples 4e, Benzyl Penicillin or Cloxacillin 10 μg/ml): yellow
- Colour of media in each well (Escherichia coli; t~16 h, bacteria samples 4e, Benzyl Penicillin or Cloxacillin 100 μg/ml): yellow
- Colour of media in each well (Escherichia coli; t~16 h, bacteria samples 4e, Benzyl Penicillin or Cloxacillin 1,000 μg/ml): red
- Colour of media in each well (Escherichia coli; t~16 h, bacteria samples 4e, Benzyl Penicillin or Cloxacillin 10,000 μg/ml): red
- Colour of media in each well (Staphylococcus aureus; bacteria samples 5c, Benzyl Penicillin or Cloxacillin 1 μg/ml): red
- Colour of media in each well (Staphylococcus aureus; bacteria samples 5c, Benzyl Penicillin or Cloxacillin 10 μg/ml): red
- Colour of media in each well (Staphylococcus aureus; bacteria samples 5c, Benzyl Penicillin or Cloxacillin 100 μg/ml): red
- Colour of media in each well (Staphylococcus aureus; bacteria samples 5c, Benzyl Penicillin or Cloxacillin 1,000 μg/ml): red
- Colour of media in each well (Staphylococcus aureus; bacteria samples 5c, Benzyl Penicillin or Cloxacillin 10,000 μg/ml): red
- Colour of media in each well (Staphylococcus aureus; bacteria samples 5e, Benzyl Penicillin or Cloxacillin 1 μg/ml): red
- Colour of media in each well (Staphylococcus aureus; bacteria samples 5e, Benzyl Penicillin or Cloxacillin 10 μg/ml): red
- Colour of media in each well (Staphylococcus aureus; bacteria samples 5e, Benzyl Penicillin or Cloxacillin 100 μg/ml): red
- Colour of media in each well (Staphylococcus aureus; bacteria samples 5e, Benzyl Penicillin or Cloxacillin 1,000 μg/ml): red
- Colour of media in each well (Staphylococcus aureus; bacteria samples 5e, Benzyl Penicillin or Cloxacillin 10,000 μg/ml): red
- Colour of media in each well (Streptococcus uberis; [2]): red
- Colour of media in each well (Streptococcus uberis; [3]): red
- Colour of media in each well (Streptococcus uberis; [4]): red
- Colour of media in each well (Streptococcus uberis; [5]): red
- Colour of media in each well (Streptococcus uberis; [6]): red
- Colour of media in each well [1, 2]: red
- Colour of media in each well [1, 3]: red
- Colour of media in each well [1, 4]: red
- Colour of media in each well [1, 5]: red
- Colour of media in each well [1, 6]: red
